In paper PMC9315884, “New Membrane Active Antibacterial and Antiviral Amphiphiles Derived from Heterocyclic Backbone of Pyridinium-4-Aldoxime” (Pharmaceuticals, 2022):
Values joined by “and” are separate entries in the source; they are usually repeats but may differ in a detail not shown here. Equal entries are not always repeated. Structures can show the parent of a compound that is named as a salt. Where two headings read alike, the source gives them in different places.

Experiments:
[1] = system: Tobacco mosaic virus (TMV); assay: Antiphytoviral activity assay (local lesions on host plant leaves); format: in vivo, Tobacco mosaic virus on Datura stramonium; details: Datura stramonium leaves, compound 100 µg/mL inoculated simultaneously with TMV; for Percentage of inhibition of local lesions: vs control plants
Description: Leaves of Nicotiana tabacum L. cv. Samsun plants systemically infected with Tobacco mosaic virus (TMV) were ground in 0.06 mol/L phosphate buffer, pH 7.0 (1:1, w/v) to prepare virus inocula. […] Leaves of the local host Datura stramonium L. were dusted with silicon carbide (Sigma-Aldrich, St. Louis, MO, USA) before virus inoculation, and the inoculum was diluted with inoculation buffer to obtain 5–20 lesions per inoculated leaf. Experiments were performed when the experimental plants reached the 4–6 leaf stage.
The tested QAS (10 mg/mL) were dissolved in 4% DMSO and added to the virus inocula at a final concentration of 100 µg/mL. DMSO was added to the control virus inocula at the same concentration. The control and treated plants were then rubbed with the prepared inocula and the antiviral activity of the tested compounds was evaluated by the percentage inhibition of the number of local lesions on the leaves of the treated and control plants as described in [40]. The obtained data were analyzed in Excel (Microsoft Office) and significant differences were determined by t-test.

[2] = system: Salmonella enterica food isolate; assay: Broth microdilution assay (MIC); format: cell-based; details: S. enterica food isolate
Description: (§1) The antibacterial activity of all compounds was evaluated by determining the minimum inhibitory concentration (MIC), which is defined as the lowest concentration of the compound at which no visible bacterial growth is detected. The compounds were tested against representatives of Gram-positive and Gram-negative strains, including the ESKAPE bacterium Staphylococcus aureus ATCC25923 and the clinical isolate of methicillin-resistant S. aureus (MRSA), which are known for their pathogenicity.
(§2) The collection included five Gram-positive strains, including Staphylococcus aureus (ATCC 25923 and a methicillin-resistant Staphylococcus aureus clinical strain MRSA), Bacillus cereus ATCC 14579, Enterococcus faecalis ATCC 29212, and Listeria monocytogenes ATCC 7644; and three Gram-negative strains: Escherichia coli ATCC 25922, Pseudomonas aeruginosa ATCC 27853 and the food isolate Salmonella enterica. All microbial strains were maintained at ™80 °C for long-term storage and subcultured on Mueller-Hinton (MH) agar (Biolife, Italy) prior to broth microdilution experiments. The MH plates were stored at +4 °C for no longer than one month.
(§3) Antibacterial activity was evaluated using the Broth Microdilution Assay according to the Clinical and Laboratory Standard Institute’s Methods for Dilution Antimicrobial Susceptibility Test for Bacteria That Grow Aerobically; Approved Standard-Tenth Edition.
(§4) The stock solution of QAS (10 mg/mL) was prepared in 4% DMSO. Then, 100 µL of the tested QAS was added to the first well of the microtiter plate. Twofold serial dilutions in Muller-Hinton broth were performed over the entire plate at a concentration range of 5 mg/mL to 5 µg/mL. To each well, 50 µL of mid-exponentially grown inoculum containing 10^5 CFU/mL in Mueller-Hinton broth was added and incubated at 37 °C for 18 hours. The minimum inhibitory concentration (MIC) was determined as the lowest concentration at which no visually detectable bacterial growth occurred in the wells.

[3] = system: methicillin-resistant Staphylococcus aureus clinical strain MRSA; assay: Broth microdilution assay (MIC); format: cell-based
Description: as §1, §2, §3, §4

[4] = system: Bacillus cereus ATCC14579; assay: Broth microdilution assay (MIC); format: cell-based
Description: as §1
(§5) All microbial strains were maintained at ™80 °C for long-term storage and subcultured on Mueller-Hinton (MH) agar (Biolife, Italy) prior to broth microdilution experiments. The MH plates were stored at +4 °C for no longer than one month.
as §3
as §4, with “To each well, 50 µL of mid-exponentially grown inoculum containing 10^5 CFU/mL in Mueller-Hinton broth was added and incubated at 37 °C for 18 hours.” left out

[5] = system: Enterococcus faecalis ATCC29212; assay: Broth microdilution assay (MIC); format: cell-based
Description: as §1, §5, §3
as §4, with “To each well, 50 µL of mid-exponentially grown inoculum containing 10^5 CFU/mL in Mueller-Hinton broth was added and incubated at 37 °C for 18 hours.” left out

[6] = system: Escherichia coli ATCC25922; assay: Broth microdilution assay (MIC); format: cell-based
Description: as §1, §5, §3
as §4, with “To each well, 50 µL of mid-exponentially grown inoculum containing 10^5 CFU/mL in Mueller-Hinton broth was added and incubated at 37 °C for 18 hours.” left out

[7] = system: Listeria monocytogenes ATCC7644; assay: Broth microdilution assay (MIC); format: cell-based
Description: as §1, §5, §3
as §4, with “To each well, 50 µL of mid-exponentially grown inoculum containing 10^5 CFU/mL in Mueller-Hinton broth was added and incubated at 37 °C for 18 hours.” left out

[8] = system: Pseudomonas aeruginosa ATCC27853; assay: Broth microdilution assay (MIC); format: cell-based
Description: as §1, §5, §3
as §4, with “To each well, 50 µL of mid-exponentially grown inoculum containing 10^5 CFU/mL in Mueller-Hinton broth was added and incubated at 37 °C for 18 hours.” left out

[9] = system: Staphylococcus aureus ATCC25923; assay: Broth microdilution assay (MIC); format: cell-based; details: Staphylococcus aureus
Description: as §1, §5, §3
as §4, with “To each well, 50 µL of mid-exponentially grown inoculum containing 10^5 CFU/mL in Mueller-Hinton broth was added and incubated at 37 °C for 18 hours.” left out

[10] = 18 h, B. cereus ATCC14579, read-out: MIC
[11] = 18 h, E. faecalis ATCC29212, read-out: MIC
[12] = ATCC25922, 18 h, E. coli ATCC25922, read-out: MIC
[13] = 18 h, L. monocytogenes ATCC7644, read-out: MIC
[14] = 18 h, P. aeruginosa ATCC27853, read-out: MIC
[15] = S. aureus ATCC25923, 18 h, 37 °C, read-out: MIC
[16] = ATCC25922, 18 h, E. coli ATCC25922

SMILES	melting point	MIC ([2]; 18 h)	MIC ([3]; MRSA, 18 h)	MIC [4, 10]	MIC [5, 11]	MIC [6, 12]	MIC [7, 13]	MIC [8, 14]	MIC [9, 15]	MIC ([4]; ATCC14579, 18 h)	MIC ([5]; ATCC29212, 18 h)	MIC ([7]; ATCC7644, 18 h)	MIC ([8]; ATCC27853, 18 h)	MIC ([9]; ATCC25923, 18 h)	other results
ON=Cc1cc[n+](Cc2ccc(C(F)(F)F)cc2)cc1 (as salt: bromide) [Py-BnCF3, N-(p-(trifluoromethyl))benzyl-4-hydroxyiminomethylpyridinium bromide]	186 to 187 °C														
ON=Cc1cc[n+](Cc2ccc(OC(F)(F)F)cc2)cc1 (as salt: bromide) [Py-BnOCF3, N-(p-trifluoromethoxy)benzyl-4-hydroxyiminomethylpyridinium bromide]	175 to 176 °C														
CCCCCCCCCCCC[N+](C)(C)Cc1ccccc1.[Br-] [BAB, benzalkonium bromide, reference compound]															Number of local lesions (LLN ± SD) [1]: 0.2 and 0.2±0.2; Percentage of inhibition of local lesions [1]: 98.7%
CO/N=C(\C(=O)N[C@@H]1C(=O)N2C(C(=O)O)=C(COC(C)=O)CS[C@H]12)c1csc(N)n1 [Cefotaxime, reference compound]															MIC ([2]; standards): 0.1 µg/mL and 0.2 µM; MIC ([3]; S. aureus clinical/MRSA, read-out: MIC): > 119 µg/mL; MIC ([3]; S. aureus clinical/MRSA, standards, read-out: MIC): > 250 µM; MIC ([4]; B. cereus ATCC14579, standards, read-out: MIC): 3.7 µg/mL and 10 µM; MIC ([5]; E. faecalis ATCC29212, standards, read-out: MIC): 29.8 µg/mL and 60 µM; MIC ([6]; ATCC25922, E. coli ATCC25922, standards, read-out: MIC): 0.2 µg/mL and 0.4 µM; MIC ([7]; L. monocytogenes ATCC7644, standards, read-out: MIC): 3.7 µg/mL and 10 µM; MIC ([8]; P. aeruginosa ATCC27853, standards, read-out: MIC): 59.7 µg/mL and 130 µM; MIC ([9]; S. aureus ATCC25923, standards, read-out: MIC): 3.7 µg/mL and 10 µM
ON=Cc1cc[n+](Cc2ccc(Br)cc2)cc1 [Py-BnBr]		630 µg/mL	1250 µg/mL	2500 µg/mL	2500 µg/mL and 6720 µM	160 µg/mL	2500 µg/mL and 6720 µM	5000 µg/mL and 13400 µM	1250 µg/mL						
ON=Cc1cc[n+](Cc2ccc(C(F)(F)F)cc2)cc1 [Py-BnCF3, N-(p-(trifluoromethyl))benzyl-4-hydroxyiminomethylpyridinium bromide]		1250 µg/mL and 3460 µM	1250 µg/mL	1250 µg/mL	2500 µg/mL and 6920 µM	2500 µg/mL and 6920 µM	2500 µg/mL and 6920 µM	5000 µg/mL and 13800 µM	630 µg/mL						
Cc1ccc(C[n+]2ccc(C=NO)cc2)cc1 [Py-BnCH3]		630 µg/mL	5000 µg/mL	5000 µg/mL	2500 µg/mL and 8140 µM	5000 µg/mL and 16300 µM	1250 µg/mL and 4070 µM	> 5000 µg/mL and > 16300 µM	2500 µg/mL						
ON=Cc1cc[n+](Cc2ccc(Cl)cc2)cc1 [Py-BnCl]		2500 µg/mL and 7630 µM	2500 µg/mL	5000 µg/mL	5000 µg/mL and 15300 µM	310 µg/mL	2500 µg/mL and 7630 µM	5000 µg/mL and 15300 µM	1250 µg/mL						
ON=Cc1cc[n+](Cc2ccc(F)cc2)cc1.[Br-] [Py-BnF, N-p-fluorobenzyl-4-hydroxyiminomethylpyridinium bromide]	181 to 183 °C	> 5000 µg/mL and > 16100 µM	> 5000 µg/mL							> 5000 µg/mL	> 5000 µg/mL and > 16100 µM	> 5000 µg/mL and > 16100 µM	> 5000 µg/mL and > 16100 µM	5000 µg/mL	MIC [6, 16]: 630 µg/mL
O=[N+]([O-])c1ccc(C[n+]2ccc(C=NO)cc2)cc1 [Py-BnNO2]		5000 µg/mL and 14800 µM	> 5000 µg/mL							> 5000 µg/mL	> 5000 µg/mL and > 14800 µM	> 5000 µg/mL and > 14800 µM	> 5000 µg/mL and > 14800 µM	5000 µg/mL	MIC ([6]; ATCC25922, 18 h): 2500 µg/mL and 7390 µM
ON=Cc1cc[n+](Cc2ccc(OC(F)(F)F)cc2)cc1 [Py-BnOCF3, N-(p-trifluoromethoxy)benzyl-4-hydroxyiminomethylpyridinium bromide]		2500 µg/mL and 6630 µM	1250 µg/mL	2500 µg/mL	2500 µg/mL and 6630 µM	310 µg/mL	2500 µg/mL and 6630 µM	2500 µg/mL and 6630 µM	310 µg/mL						
ON=Cc1cc[n+](Cc2ccccc2)cc1 [Py-Bn]		> 5000 µg/mL and > 17000 µM	> 5000 µg/mL							> 5000 µg/mL	> 5000 µg/mL and > 17000 µM	> 5000 µg/mL and > 17000 µM	> 5000 µg/mL and > 17000 µM	> 5000 µg/mL	MIC ([6]; ATCC25922, 18 h): 1250 µg/mL and 4260 µM
ON=Cc1cc[n+](CCCCCCCCBr)cc1.[Br-] [Py-C8Br, N-(8-bromooctyl)-4-hydroxyiminomethylpyridinium bromide]	100 to 101 °C	> 5000 µg/mL and > 12700 µM	2500 µg/mL							2500 µg/mL	2500 µg/mL and 6340 µM	1250 µg/mL and 3170 µM	> 5000 µg/mL and > 12700 µM	5000 µg/mL	MIC [6, 16]: 1250 µg/mL and 3170 µM
ON=Cc1cc[n+](CCCCCCCCCCBr)cc1.[Br-] [Py-C10Br, N-(10-bromodecyl)-4-hydroxyiminomethylpyridinium bromide]	103 to 105 °C	5000 µg/mL and 11800 µM	310 µg/mL							630 µg/mL	5000 µg/mL and 11800 µM	5000 µg/mL and 11800 µM	> 5000 µg/mL and > 11800 µM	630 µg/mL	MIC [6, 16]: 630 µg/mL and 1490 µM
ON=Cc1cc[n+](CCCCCCCCCCCCBr)cc1.[Br-] [Py-C12Br, N-(12-bromododecyl)-4-hydroxyiminomethylpyridinium bromide]	109 to 110 °C	2500 µg/mL and 5550 µM	310 µg/mL							630 µg/mL	1250 µg/mL and 2780 µM	1250 µg/mL and 2780 µM	2500 µg/mL and 5550 µM	160 µg/mL	MIC [6, 16]: 630 µg/mL and 1400 µM; Number of local lesions (LLN ± SD) [1]: 6.3±1.6; Percentage of inhibition of local lesions [1]: 57.7%
